Test system: MV-4-11 cells
Assay: Gene expression microarray analysis (Affymetrix PrimeView) and GSEA
Format: cell-based, human
Design: RFU PODN (11730768_x_at) / Fold change /veh PODN (11730768_x_at) / RFU LINC00158 (11744669_a_at) / Fold change /veh LINC00158 (11744669_a_at) / RFU DUSP10 (11751237_a_at) / Fold change /veh DUSP10 (11751237_a_at) / RFU ID3 (11757404_x_at) / Fold change /veh ID3 (11757404_x_at) / RFU PLEKHG5 (11737974_s_at) / Fold change /veh PLEKHG5 (11737974_s_at) / RFU LRRC4B (11730491_at) / Fold change /veh LRRC4B (11730491_at) / RFU GIMAP4 (11747438_a_at) / Fold change /veh GIMAP4 (11747438_a_at) / RFU KRT8 (11758183_x_at) / Fold change /veh KRT8 (11758183_x_at) / RFU CNN1 (11734310_a_at) / Fold change /veh CNN1 (11734310_a_at) / RFU VPS37D (11726825_at) / Fold change /veh VPS37D (11726825_at) / RFU C10orf10 (11716522_x_at) / Fold change /veh C10orf10 (11716522_x_at) / RFU KIR2DL2 /// KIR2DL4 /// KIR2DL5A /// KIR2DL5B /// KIR2DS1 /// KIR2DS2 /// KIR2DS3 /// KIR2DS4 /// KIR3DL3 /// KIR3DL3 /// KIR3DS1 (11738374_at) / Fold change /veh KIR2DL2 /// KIR2DL4 /// KIR2DL5A /// KIR2DL5B /// KIR2DS1 /// KIR2DS2 /// KIR2DS3 /// KIR2DS4 /// KIR3DL3 /// KIR3DL3 /// KIR3DS1 (11738374_at) / RFU C1QL1 (11718748_at) / Fold change /veh C1QL1 (11718748_at) / RFU TMPRSS4 (11747572_a_at) / Fold change /veh TMPRSS4 (11747572_a_at) / RFU HAMP (11756126_x_at) / Fold change /veh HAMP (11756126_x_at) / RFU RNFT2 (11725882_a_at) / Fold change /veh RNFT2 (11725882_a_at) / RFU NR4A2 (11747474_a_at) / Fold change /veh NR4A2 (11747474_a_at) / RFU ABCC12 (11746883_a_at) / Fold change /veh ABCC12 (11746883_a_at) / RFU TMEM136 (11760407_x_at) / Fold change /veh TMEM136 (11760407_x_at) / RFU CLDN22 /// WWC2 (11732394_at) / Fold change /veh CLDN22 /// WWC2 (11732394_at) / RFU HLA-DPB1 (11760878_x_at) / Fold change /veh HLA-DPB1 (11760878_x_at) / RFU SPINT1 (11716480_a_at) / Fold change /veh SPINT1 (11716480_a_at) / RFU GAP43 (11754022_s_at) / Fold change /veh GAP43 (11754022_s_at) / RFU A4GNT (11735810_at) / Fold change /veh A4GNT (11735810_at) / RFU PRB3 (11715151_x_at) / Fold change /veh PRB3 (11715151_x_at) / RFU TUBB4B (11761932_at) / Fold change /veh TUBB4B (11761932_at) / RFU CAPN14 (11732068_a_at) / Fold change /veh CAPN14 (11732068_a_at) / RFU TMCC2 (11721928_a_at) / Fold change /veh TMCC2 (11721928_a_at) / RFU IRGQ (11745062_a_at) / Fold change /veh IRGQ (11745062_a_at) / RFU FAM174B (11720279_a_at) / Fold change /veh FAM174B (11720279_a_at) / RFU TMPRSS4 (11748680_a_at) / Fold change /veh TMPRSS4 (11748680_a_at) / RFU FAM212B (11763350_a_at) / Fold change /veh FAM212B (11763350_a_at) / RFU PLEKHG5 (11743358_a_at) / Fold change /veh PLEKHG5 (11743358_a_at) / RFU ZSCAN30 (11745921_a_at) / Fold change /veh ZSCAN30 (11745921_a_at) / RFU CMKLR1 (11741424_a_at) / Fold change /veh CMKLR1 (11741424_a_at) / RFU LOC101060620 /// MAPK8IP1 (11723275_at) / Fold change /veh LOC101060620 /// MAPK8IP1 (11723275_at) / RFU SPTSSB (11747773_x_at) / Fold change /veh SPTSSB (11747773_x_at) / RFU PRSS12 (11739890_at) / Fold change /veh PRSS12 (11739890_at) / RFU BIN1 (11741810_x_at) / Fold change /veh BIN1 (11741810_x_at) / RFU WNT11 (11732464_a_at) / Fold change /veh WNT11 (11732464_a_at) / RFU C10orf10 (11716521_a_at) / Fold change /veh C10orf10 (11716521_a_at) / RFU C5orf56 (11738089_at) / Fold change /veh C5orf56 (11738089_at) / RFU CYB561 (11721691_x_at) / Fold change /veh CYB561 (11721691_x_at) / RFU ANKRD19P (11752326_a_at) / Fold change /veh ANKRD19P (11752326_a_at) / RFU OR2T12 /// OR2T33 /// OR2T8 (11738714_s_at) / Fold change /veh OR2T12 /// OR2T33 /// OR2T8 (11738714_s_at) / RFU VCAN (11748164_a_at) / Fold change /veh VCAN (11748164_a_at) / RFU JSRP1 (11732532_at) / Fold change /veh JSRP1 (11732532_at) / RFU KRTAP10-11 (11738290_x_at) / Fold change /veh KRTAP10-11 (11738290_x_at) / RFU MYO3A (11730013_a_at) / Fold change /veh MYO3A (11730013_a_at) / RFU EBF3 (11725865_a_at) / Fold change /veh EBF3 (11725865_a_at) / RFU CAMK2N1 (11719241_x_at) / Fold change /veh CAMK2N1 (11719241_x_at) / RFU C5orf56 (11738088_a_at) / Fold change /veh C5orf56 (11738088_a_at) / RFU OLFML3 (11715873_a_at) / Fold change /veh OLFML3 (11715873_a_at) / RFU LOC100653217 /// NTM (11731650_a_at) / Fold change /veh LOC100653217 /// NTM (11731650_a_at) / RFU MAPK11 (11762145_a_at) / Fold change /veh MAPK11 (11762145_a_at) / RFU FIZ1 (11724087_x_at) / Fold change /veh FIZ1 (11724087_x_at) / RFU OASL (11726364_x_at) / Fold change /veh OASL (11726364_x_at) / RFU SOX15 (11748057_x_at) / Fold change /veh SOX15 (11748057_x_at) / RFU CD79A (11719716_a_at) / Fold change /veh CD79A (11719716_a_at) / RFU HIST1H1D (11736915_at) / Fold change /veh HIST1H1D (11736915_at) / RFU CASKIN2 (11723855_a_at) / Fold change /veh CASKIN2 (11723855_a_at) / RFU LOC730098 (11760151_x_at) / Fold change /veh LOC730098 (11760151_x_at) / RFU OR4N2 (11742367_at) / Fold change /veh OR4N2 (11742367_at) / RFU PRRT2 (11749266_a_at) / Fold change /veh PRRT2 (11749266_a_at) / RFU SNX32 (11753110_a_at) / Fold change /veh SNX32 (11753110_a_at) / RFU CDHR5 (11726645_a_at) / Fold change /veh CDHR5 (11726645_a_at) / RFU RCAN1 (11760418_a_at) / Fold change /veh RCAN1 (11760418_a_at) / RFU FAM167A (11723789_a_at) / Fold change /veh FAM167A (11723789_a_at) / RFU FAM26E (11764081_at) / Fold change /veh FAM26E (11764081_at) / RFU ISYNA1 (11749810_s_at) / Fold change /veh ISYNA1 (11749810_s_at) / RFU ACY1 (11761880_at) / Fold change /veh ACY1 (11761880_at) / RFU 11764098_at / Fold change /veh 11764098_at / RFU SAMD14 (11745864_x_at) / Fold change /veh SAMD14 (11745864_x_at) / RFU NPB (11741838_a_at) / Fold change /veh NPB (11741838_a_at) / RFU TMPRSS6 (11731388_a_at) / Fold change /veh TMPRSS6 (11731388_a_at) / RFU KRTAP10-2 (11738614_at) / Fold change /veh KRTAP10-2 (11738614_at) / RFU ARHGAP8 /// PRR5-ARHGAP8 (11727945_x_at) / Fold change /veh ARHGAP8 /// PRR5-ARHGAP8 (11727945_x_at) / RFU KRTAP5-7 /// NADSYN1 (11734609_at) / Fold change /veh KRTAP5-7 /// NADSYN1 (11734609_at) / RFU RASL12 (11751679_a_at) / Fold change /veh RASL12 (11751679_a_at) / RFU CDKN2B (11736163_a_at) / Fold change /veh CDKN2B (11736163_a_at) / RFU PRF1 (11729649_at) / Fold change /veh PRF1 (11729649_at) / RFU, ZNF638 /// ZNF638-IT1 / Fold change vs veh, ZNF638 /// ZNF638-IT1 / RFU, PANK3 / Fold change vs veh, PANK3 / RFU, SH3YL1 / Fold change vs veh, SH3YL1 / RFU, ZEB2 / Fold change vs veh, ZEB2 / RFU, NRIP1 / Fold change vs veh, NRIP1 / RFU, PTTG1IP / Fold change vs veh, PTTG1IP / RFU, CAPN2 / Fold change vs veh, CAPN2 / RFU, MED14 / Fold change vs veh, MED14 / RFU, SNORA58 / Fold change vs veh, SNORA58 / RFU, C1orf63 / Fold change vs veh, C1orf63 / RFU, LRRFIP1 / Fold change vs veh, LRRFIP1 / RFU, NDUFAF7 / Fold change vs veh, NDUFAF7 / RFU, SLC12A2 / Fold change vs veh, SLC12A2 / RFU, IBTK / Fold change vs veh, IBTK / RFU, ESF1 / Fold change vs veh, ESF1 / Fold change vs veh, TMEM50B / RFU, TAOK1 / Fold change vs veh, TAOK1 / RFU, ACBD3 / Fold change vs veh, ACBD3 / RFU, TMA16 / Fold change vs veh, TMA16 / RFU, RWDD3 / Fold change vs veh, RWDD3 / RFU, BCAT1 / Fold change vs veh, BCAT1 / RFU, EDEM3 / Fold change vs veh, EDEM3 / RFU, TMEM33 / Fold change vs veh, TMEM33 / RFU, WDR75 / Fold change vs veh, WDR75 / RFU, AHCTF1 / Fold change vs veh, AHCTF1 / RFU, TFRC / Fold change vs veh, TFRC / RFU, ZDHHC17 / Fold change vs veh, ZDHHC17 / RFU, NOM1 / Fold change vs veh, NOM1 / RFU, ARL8B / Fold change vs veh, ARL8B / RFU, ZBTB11 / Fold change vs veh, ZBTB11 / RFU, TAMM41 / Fold change vs veh, TAMM41 / RFU, KIAA1704 /// LOC100996395 / Fold change vs veh, KIAA1704 /// LOC100996395 / RFU, ING1 / Fold change vs veh, ING1 / RFU, TRMT61B / Fold change vs veh, TRMT61B / RFU, FUBP3 / Fold change vs veh, FUBP3 / RFU, TP53 / Fold change vs veh, TP53 / RFU, TNKS2 / Fold change vs veh, TNKS2 / RFU, ZFP14 / Fold change vs veh, ZFP14 / RFU, ACTR2 / Fold change vs veh, ACTR2 / RFU, PPP3R1 / Fold change vs veh, PPP3R1 / RFU, PIK3R1 / Fold change vs veh, PIK3R1 / RFU, HNRNPA1 / Fold change vs veh, HNRNPA1 / RFU, RNF170 / Fold change vs veh, RNF170 / RFU, ZNF28 / Fold change vs veh, ZNF28 / RFU, RNGTT / Fold change vs veh, RNGTT / RFU, OGT / Fold change vs veh, OGT / RFU, BRD1 / Fold change vs veh, BRD1 / RFU, MARS / Fold change vs veh, MARS / RFU, ZNF655 / Fold change vs veh, ZNF655 / RFU, FAHD1 / Fold change vs veh, FAHD1 / RFU, BDP1 / Fold change vs veh, BDP1 / RFU, LRRCC1 / Fold change vs veh, LRRCC1 / RFU, ARID1A / Fold change vs veh, ARID1A / RFU, ZNF146 / Fold change vs veh, ZNF146 / RFU, ZNF330 / Fold change vs veh, ZNF330 / RFU, GPN3 / Fold change vs veh, GPN3 / RFU, C9orf123 / Fold change vs veh, C9orf123 / RFU, N4BP2L2 / Fold change vs veh, N4BP2L2 / RFU, ARFIP1 / Fold change vs veh, ARFIP1 / RFU, FAM179B / Fold change vs veh, FAM179B / RFU, BCL10 / Fold change vs veh, BCL10 / RFU, UHRF1BP1L / Fold change vs veh, UHRF1BP1L / RFU, BET1 / Fold change vs veh, BET1 / RFU, CNOT2 / Fold change vs veh, CNOT2 / RFU, ZNF268 / Fold change vs veh, ZNF268 / Fold change vs veh, ZNF507 / RFU, DGCR2 / Fold change vs veh, DGCR2 / RFU, WDSUB1 / Fold change vs veh, WDSUB1 / Fold change vs veh, HSP90B1 /// MIR3652 / RFU, ADSS / Fold change vs veh, ADSS / RFU, GK / Fold change vs veh, GK / RFU, ZNF148 / Fold change vs veh, ZNF148 / RFU, TAF9 / Fold change vs veh, TAF9 / RFU, SLC1A5 / Fold change vs veh, SLC1A5 / RFU, SLMO2 / Fold change vs veh, SLMO2 / RFU, ABCC4 / Fold change vs veh, ABCC4 / RFU, LOC101060439 /// RAP1B / Fold change vs veh, LOC101060439 /// RAP1B / RFU, RFX7 / Fold change vs veh, RFX7 / RFU, GTPBP10 / Fold change vs veh, GTPBP10 / RFU, CNEP1R1 / Fold change vs veh, CNEP1R1 / RFU, BIVM-ERCC5 /// ERCC5 / Fold change vs veh, BIVM-ERCC5 /// ERCC5 / RFU, ILF3 / Fold change vs veh, ILF3 / RFU 11762660_at / Fold change /veh 11762660_at / RFU VCAN (11757783_s_at) / Fold change /veh VCAN (11757783_s_at) / RFU DDX43 (11728927_at) / Fold change /veh DDX43 (11728927_at) / RFU KRT8 (11758188_x_at) / Fold change /veh KRT8 (11758188_x_at) / RFU NKD1 (11759106_at) / Fold change /veh NKD1 (11759106_at) / RFU SRD5A1 (11742802_a_at) / Fold change /veh SRD5A1 (11742802_a_at) / RFU TPSAB1 /// TPSB2 (11721975_s_at) / Fold change /veh TPSAB1 /// TPSB2 (11721975_s_at) / RFU GSTM3 (11746129_a_at) / Fold change /veh GSTM3 (11746129_a_at) / RFU IL23R (11737362_x_at) / Fold change /veh IL23R (11737362_x_at) / RFU TMEM51 (11727254_a_at) / Fold change /veh TMEM51 (11727254_a_at) / RFU PIWIL2 (11732686_x_at) / Fold change /veh PIWIL2 (11732686_x_at) / RFU ORM1 (11744905_x_at) / Fold change /veh ORM1 (11744905_x_at) / RFU CCDC152 (11743942_at) / Fold change /veh CCDC152 (11743942_at) / RFU ECM1 (11717891_a_at) / Fold change /veh ECM1 (11717891_a_at) / RFU IL23R (11748794_a_at) / Fold change /veh IL23R (11748794_a_at) / RFU TNFAIP8L3 (11732012_x_at) / Fold change /veh TNFAIP8L3 (11732012_x_at) / RFU MBOAT4 (11741988_at) / Fold change /veh MBOAT4 (11741988_at) / RFU 11764193_at / Fold change /veh 11764193_at / RFU TMEM53 (11763286_at) / Fold change /veh TMEM53 (11763286_at) / RFU MAGEB2 (11727129_at) / Fold change /veh MAGEB2 (11727129_at) / RFU TMEM200A (11744735_a_at) / Fold change /veh TMEM200A (11744735_a_at) / RFU CCDC152 (11751479_a_at) / Fold change /veh CCDC152 (11751479_a_at) / RFU FAM211A (11726209_a_at) / Fold change /veh FAM211A (11726209_a_at) / RFU RGS16 (11746705_a_at) / Fold change /veh RGS16 (11746705_a_at) / RFU VCAN (11755009_s_at) / Fold change /veh VCAN (11755009_s_at) / RFU RHOB (11743442_s_at) / Fold change /veh RHOB (11743442_s_at) / RFU RGS16 (11720943_a_at) / Fold change /veh RGS16 (11720943_a_at) / RFU RGS16 (11720944_at) / Fold change /veh RGS16 (11720944_at) / RFU, VPS4B / Fold change vs veh, VPS4B / RFU, CREB1 / Fold change vs veh, CREB1 / RFU, DNAJC13 / Fold change vs veh, DNAJC13 / RFU, GNAQ / Fold change vs veh, GNAQ / RFU, CDK5R1 / Fold change vs veh, CDK5R1 / RFU, ZRANB3 / Fold change vs veh, ZRANB3 / RFU, CUL4A / Fold change vs veh, CUL4A / RFU, CCNY / Fold change vs veh, CCNY / RFU, UFL1 / Fold change vs veh, UFL1 / RFU, COG3 / Fold change vs veh, COG3 / RFU, DIAPH2 / Fold change vs veh, DIAPH2 / RFU, SKA2 / Fold change vs veh, SKA2 / RFU, AFF3 / Fold change vs veh, AFF3 / RFU, LMF1 / Fold change vs veh, LMF1 / RFU, IPO11 / Fold change vs veh, IPO11 / RFU, DFFB / Fold change vs veh, DFFB / RFU, FOXP1 / Fold change vs veh, FOXP1 / RFU, CARD8 / Fold change vs veh, CARD8 / RFU, STRN3 / Fold change vs veh, STRN3 / RFU, ADK / Fold change vs veh, ADK / RFU, RASSF2 / Fold change vs veh, RASSF2 / RFU, WIPF1 / Fold change vs veh, WIPF1 / RFU, LARP1B / Fold change vs veh, LARP1B / RFU, RASA1 / Fold change vs veh, RASA1 / RFU, RB1 / Fold change vs veh, RB1 / RFU, PPFIA1 / Fold change vs veh, PPFIA1 / RFU, MAT2A / Fold change vs veh, MAT2A / RFU, CCT5 / Fold change vs veh, CCT5 / RFU, WDR92 / Fold change vs veh, WDR92 / RFU, CUX1 / Fold change vs veh, CUX1 / RFU, TTC7A / Fold change vs veh, TTC7A / RFU, TMEM135 / Fold change vs veh, TMEM135 / RFU, DEPTOR / Fold change vs veh, DEPTOR / RFU, CPM / Fold change vs veh, CPM / RFU, DNAJB6 / Fold change vs veh, DNAJB6 / RFU, CACNA2D3 / Fold change vs veh, CACNA2D3 / RFU, DTX4 / Fold change vs veh, DTX4 / RFU, TFCP2 / Fold change vs veh, TFCP2 / RFU, GMCL1 /// GMCL1P1 / Fold change vs veh, GMCL1 /// GMCL1P1 / RFU, AEBP2 / Fold change vs veh, AEBP2 / RFU, SNHG1 /// SNORD22 /// SNORD25 /// SNORD26 /// SNORD27 /// SNORD28 /// SNORD29 /// SNORD31 / Fold change vs veh, SNHG1 /// SNORD22 /// SNORD25 /// SNORD26 /// SNORD27 /// SNORD28 /// SNORD29 /// SNORD31 / Fold change (Aza/veh), C12orf56 (ProbeSet 11735607_a_at) / Fold change (ACY-1035/veh), C12orf56 (ProbeSet 11735607_a_at) / Fold change (Aza/veh), FGFR1OP (ProbeSet 11751329_s_at) / Fold change (ACY-1035/veh), FGFR1OP (ProbeSet 11751329_s_at) / Fold change (Aza/veh), VPS36 (ProbeSet 11739960_a_at) / Fold change (ACY-1035/veh), VPS36 (ProbeSet 11739960_a_at) / RFU SYPL1 (11715823_x_at) / Fold change /veh SYPL1 (11715823_x_at) / RFU IGFBP7 (11715501_s_at) / Fold change /veh IGFBP7 (11715501_s_at) / RFU REEP3 (11722064_at) / Fold change /veh REEP3 (11722064_at) / RFU IGLL1 (11728026_x_at) / Fold change /veh IGLL1 (11728026_x_at): dose or concentration left out as unconfirmed
Details: ProbeSet 11720566_at; LIST D

Compound: Nc1ccc(-c2cccs2)cc1NC(=O)c1ccc2c(c1)cc(C1CC1)n2CCN1CCOCC1 [ACY-1035]
- Fold change vs veh, BCAT1: 0.85
